Experiment [1] has as its system Tyrosine-protein kinase ABL1 (Homo sapiens), P00519 [Q252H]. Particulars: Compound concentration 1000.0 nM.
The target in experiment [2] is RAC-gamma serine/threonine-protein kinase (Homo sapiens) (UniProt Q9Y243). The conditions noted are these: Compound concentration 1000.0 nM.
Experiment [3] concerns the target Cyclin-dependent kinase 3 (Homo sapiens) (UniProt Q00526). The conditions noted are these: Compound concentration 1000.0 nM.
The target of experiment [4] is Cyclin-dependent kinase 4 (Homo sapiens) (UniProt P11802). Particulars: Compound concentration 1000.0 nM.
Chain of Cyclin-dependent kinase 4 (Homo sapiens) (P11802 whole entry): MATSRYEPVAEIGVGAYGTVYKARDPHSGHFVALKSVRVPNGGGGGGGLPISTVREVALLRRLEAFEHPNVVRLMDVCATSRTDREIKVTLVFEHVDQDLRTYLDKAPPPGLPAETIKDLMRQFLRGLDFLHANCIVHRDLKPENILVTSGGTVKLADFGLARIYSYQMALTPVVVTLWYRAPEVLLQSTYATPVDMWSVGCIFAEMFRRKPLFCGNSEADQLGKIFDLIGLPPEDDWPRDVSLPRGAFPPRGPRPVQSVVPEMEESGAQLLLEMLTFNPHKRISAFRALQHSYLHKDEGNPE
Experiment [5] addresses Cyclin-dependent kinase 5 (Homo sapiens) (UniProt Q00535). Particulars: Compound concentration 1000.0 nM.
The target of experiment [6] is Serine/threonine-protein kinase Chk2 (Homo sapiens) (UniProt O96017). Particulars: Compound concentration 1000.0 nM.
Experiment [7] has as its target T1, Serine/threonine-protein kinase DCLK3 (Homo sapiens) (UniProt Q9C098).
T1 sequence (whole entry): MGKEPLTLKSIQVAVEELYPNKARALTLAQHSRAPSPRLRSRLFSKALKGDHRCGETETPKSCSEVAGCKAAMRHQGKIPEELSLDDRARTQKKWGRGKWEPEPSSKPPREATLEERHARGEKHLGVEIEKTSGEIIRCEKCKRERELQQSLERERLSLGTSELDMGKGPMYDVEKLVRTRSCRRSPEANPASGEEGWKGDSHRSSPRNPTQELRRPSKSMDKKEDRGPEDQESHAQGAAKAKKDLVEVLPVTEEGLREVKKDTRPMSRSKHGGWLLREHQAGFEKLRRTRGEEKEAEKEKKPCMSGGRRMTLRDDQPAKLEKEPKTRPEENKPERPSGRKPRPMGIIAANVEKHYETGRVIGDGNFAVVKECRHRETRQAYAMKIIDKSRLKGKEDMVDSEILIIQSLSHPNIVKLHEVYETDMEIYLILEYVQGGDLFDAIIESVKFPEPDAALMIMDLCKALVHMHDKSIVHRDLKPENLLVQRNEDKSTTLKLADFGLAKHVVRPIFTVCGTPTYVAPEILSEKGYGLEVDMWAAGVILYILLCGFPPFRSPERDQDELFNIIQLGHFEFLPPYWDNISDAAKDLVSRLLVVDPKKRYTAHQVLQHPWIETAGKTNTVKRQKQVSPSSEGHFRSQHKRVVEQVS
The conditions noted are these: Compound concentration 1000.0 nM.

The subject of experiment [8] is Epidermal growth factor receptor (Homo sapiens), P00533 [UNDEFINED MUTATION]. Particulars: Compound concentration 1000.0 nM.
The test system is the same in experiment [9]. Particulars: Compound concentration 1000.0 nM. This is another data set of the same source.
Experiment [10] relates to Epidermal growth factor receptor (Homo sapiens), P00533 [L858R,T790M]. Particulars: Compound concentration 1000.0 nM.
The target of experiment [11] is Receptor tyrosine-protein kinase erbB-2 (Homo sapiens) (UniProt P04626). Particulars: Compound concentration 1000.0 nM.
Experiment [12] concerns the target Mitogen-activated protein kinase kinase kinase kinase 1 (Homo sapiens) (UniProt Q92918). The conditions noted are these: Compound concentration 1000.0 nM.
Experiment [13] has as its target T2, Mitogen-activated protein kinase kinase kinase 2 (Homo sapiens) (UniProt Q9Y2U5).
T2 sequence (whole entry): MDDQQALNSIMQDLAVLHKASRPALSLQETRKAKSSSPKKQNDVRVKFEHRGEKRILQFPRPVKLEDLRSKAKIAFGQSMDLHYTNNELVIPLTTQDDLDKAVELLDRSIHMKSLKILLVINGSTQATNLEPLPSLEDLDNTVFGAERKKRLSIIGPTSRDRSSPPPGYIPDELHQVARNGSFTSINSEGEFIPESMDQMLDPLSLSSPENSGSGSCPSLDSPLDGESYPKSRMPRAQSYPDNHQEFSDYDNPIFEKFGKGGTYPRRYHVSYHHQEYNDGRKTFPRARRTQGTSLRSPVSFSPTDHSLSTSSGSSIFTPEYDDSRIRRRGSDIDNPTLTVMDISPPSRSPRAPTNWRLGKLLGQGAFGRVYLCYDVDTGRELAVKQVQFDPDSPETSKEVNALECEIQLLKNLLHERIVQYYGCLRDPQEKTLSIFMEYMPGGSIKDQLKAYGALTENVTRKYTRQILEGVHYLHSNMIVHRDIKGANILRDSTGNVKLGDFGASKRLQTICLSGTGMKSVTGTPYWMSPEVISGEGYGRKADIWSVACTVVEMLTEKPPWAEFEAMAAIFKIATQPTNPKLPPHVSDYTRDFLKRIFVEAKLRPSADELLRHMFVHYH
Particulars: Compound concentration 1000.0 nM.

Experiment [14] has as its target Serine/threonine-protein kinase PAK 4 (Homo sapiens) (UniProt O96013). Particulars: Compound concentration 1000.0 nM.
Experiment [15] deals with Serine/threonine-protein kinase PAK 6 (Homo sapiens) (UniProt Q9NQU5). Particulars: Compound concentration 1000.0 nM.
Chain of Serine/threonine-protein kinase PAK 6 (Homo sapiens) (Q9NQU5 whole entry, looked up): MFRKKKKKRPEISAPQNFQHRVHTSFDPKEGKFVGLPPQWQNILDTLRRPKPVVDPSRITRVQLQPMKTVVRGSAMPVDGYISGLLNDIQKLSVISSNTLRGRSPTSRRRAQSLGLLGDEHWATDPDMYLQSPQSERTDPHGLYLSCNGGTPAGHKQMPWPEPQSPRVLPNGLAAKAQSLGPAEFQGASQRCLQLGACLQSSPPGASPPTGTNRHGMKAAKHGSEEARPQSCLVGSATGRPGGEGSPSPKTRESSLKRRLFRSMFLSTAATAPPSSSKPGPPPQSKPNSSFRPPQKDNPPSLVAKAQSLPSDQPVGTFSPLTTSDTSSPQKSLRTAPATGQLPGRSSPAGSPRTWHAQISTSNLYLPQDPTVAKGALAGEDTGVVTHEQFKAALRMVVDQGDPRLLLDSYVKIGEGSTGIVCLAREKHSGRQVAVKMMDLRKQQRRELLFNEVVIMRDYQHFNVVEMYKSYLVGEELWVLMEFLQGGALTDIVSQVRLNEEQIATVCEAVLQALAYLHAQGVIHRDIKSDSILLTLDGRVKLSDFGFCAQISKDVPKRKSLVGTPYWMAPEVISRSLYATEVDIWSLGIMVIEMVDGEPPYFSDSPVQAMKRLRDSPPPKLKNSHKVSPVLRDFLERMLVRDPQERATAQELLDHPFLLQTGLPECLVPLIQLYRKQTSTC
For experiment [16], the target named is 3-phosphoinositide-dependent protein kinase 1 (Homo sapiens) (UniProt O15530). The conditions noted are these: Compound concentration 1000.0 nM.
Chain of 3-phosphoinositide-dependent protein kinase 1 (Homo sapiens) (O15530 whole entry, canonical isoform): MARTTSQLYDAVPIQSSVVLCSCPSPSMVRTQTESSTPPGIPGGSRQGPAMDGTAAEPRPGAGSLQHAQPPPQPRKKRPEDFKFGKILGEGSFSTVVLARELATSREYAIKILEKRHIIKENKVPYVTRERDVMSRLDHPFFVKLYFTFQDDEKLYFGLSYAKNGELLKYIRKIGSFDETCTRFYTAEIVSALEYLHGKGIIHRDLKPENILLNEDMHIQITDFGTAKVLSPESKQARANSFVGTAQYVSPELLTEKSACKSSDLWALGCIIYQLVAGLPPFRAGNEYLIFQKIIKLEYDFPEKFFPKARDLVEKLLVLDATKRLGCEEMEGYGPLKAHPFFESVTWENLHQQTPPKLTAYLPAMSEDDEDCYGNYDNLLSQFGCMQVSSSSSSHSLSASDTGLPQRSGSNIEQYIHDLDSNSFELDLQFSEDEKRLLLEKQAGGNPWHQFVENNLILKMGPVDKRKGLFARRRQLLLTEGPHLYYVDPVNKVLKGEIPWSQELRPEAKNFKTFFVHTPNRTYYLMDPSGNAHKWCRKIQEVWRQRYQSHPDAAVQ
Experiment [17] deals with Phosphatidylinositol 4,5-bisphosphate 3-kinase catalytic subunit delta isoform (Homo sapiens) (UniProt O00329). The conditions noted are these: Compound concentration 1000.0 nM.
In experiment [18] the target is Serine/threonine-protein kinase PLK3 (Homo sapiens) (UniProt Q9H4B4). Particulars: Compound concentration 1000.0 nM.
Experiment [19] addresses Ribosomal protein S6 kinase alpha-6 (Homo sapiens) (UniProt Q9UK32). Particulars: Compound concentration 1000.0 nM.
The target of experiment [20] is TRAF2 and NCK-interacting protein kinase (Homo sapiens) (UniProt Q9UKE5). Particulars: Compound concentration 1000.0 nM.
Experiment [21] concerns the target Mitogen-activated protein kinase kinase kinase 20 (Homo sapiens) (UniProt Q9NYL2). Particulars: Compound concentration 1000.0 nM.
The target in experiment [22] is Kappa-type opioid receptor (Homo sapiens) (UniProt P41145). The conditions noted are these: Compound concentration 10.0 uM.
Chain of Kappa-type opioid receptor (Homo sapiens) (P41145 whole entry): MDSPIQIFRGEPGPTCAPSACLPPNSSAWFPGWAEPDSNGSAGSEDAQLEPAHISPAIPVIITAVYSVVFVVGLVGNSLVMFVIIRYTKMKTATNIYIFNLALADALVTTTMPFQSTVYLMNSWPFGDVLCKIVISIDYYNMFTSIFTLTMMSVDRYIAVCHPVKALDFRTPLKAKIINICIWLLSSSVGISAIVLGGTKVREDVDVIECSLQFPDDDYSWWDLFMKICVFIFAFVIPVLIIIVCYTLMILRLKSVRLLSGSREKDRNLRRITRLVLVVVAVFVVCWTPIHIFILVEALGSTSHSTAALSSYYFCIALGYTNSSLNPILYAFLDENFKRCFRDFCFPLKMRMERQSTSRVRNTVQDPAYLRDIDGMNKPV
Experiment [23] has as its target Sigma intracellular receptor 2 (Homo sapiens, UniProt Q5BJF2). The conditions noted are these: Compound concentration 10.0 uM.

Chain of Mitogen-activated protein kinase kinase kinase kinase 1 (Homo sapiens) (Q92918 whole entry, looked up): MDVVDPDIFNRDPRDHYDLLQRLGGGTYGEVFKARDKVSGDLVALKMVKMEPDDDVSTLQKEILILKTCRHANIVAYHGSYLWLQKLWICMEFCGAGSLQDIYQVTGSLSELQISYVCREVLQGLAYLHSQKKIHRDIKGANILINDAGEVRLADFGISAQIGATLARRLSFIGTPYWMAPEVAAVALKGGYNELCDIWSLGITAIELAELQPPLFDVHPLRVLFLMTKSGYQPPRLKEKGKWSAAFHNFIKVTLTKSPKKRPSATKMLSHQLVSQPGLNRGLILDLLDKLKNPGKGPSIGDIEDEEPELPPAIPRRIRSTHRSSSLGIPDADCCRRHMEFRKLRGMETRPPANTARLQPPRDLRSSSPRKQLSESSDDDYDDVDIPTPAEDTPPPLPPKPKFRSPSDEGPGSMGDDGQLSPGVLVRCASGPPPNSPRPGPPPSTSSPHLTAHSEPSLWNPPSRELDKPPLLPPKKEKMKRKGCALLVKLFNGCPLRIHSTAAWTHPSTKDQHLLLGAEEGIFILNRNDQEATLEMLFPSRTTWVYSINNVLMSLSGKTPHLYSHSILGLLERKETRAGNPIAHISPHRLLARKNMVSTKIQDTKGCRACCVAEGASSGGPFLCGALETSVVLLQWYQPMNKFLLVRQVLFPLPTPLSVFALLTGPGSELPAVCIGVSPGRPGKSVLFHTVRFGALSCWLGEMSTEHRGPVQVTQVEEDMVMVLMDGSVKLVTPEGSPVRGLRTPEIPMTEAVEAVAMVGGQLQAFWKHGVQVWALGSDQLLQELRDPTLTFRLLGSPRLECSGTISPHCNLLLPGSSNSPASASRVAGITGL
Chain of Mitogen-activated protein kinase kinase kinase 20 (Homo sapiens) (Q9NYL2 2-800 limits assumed): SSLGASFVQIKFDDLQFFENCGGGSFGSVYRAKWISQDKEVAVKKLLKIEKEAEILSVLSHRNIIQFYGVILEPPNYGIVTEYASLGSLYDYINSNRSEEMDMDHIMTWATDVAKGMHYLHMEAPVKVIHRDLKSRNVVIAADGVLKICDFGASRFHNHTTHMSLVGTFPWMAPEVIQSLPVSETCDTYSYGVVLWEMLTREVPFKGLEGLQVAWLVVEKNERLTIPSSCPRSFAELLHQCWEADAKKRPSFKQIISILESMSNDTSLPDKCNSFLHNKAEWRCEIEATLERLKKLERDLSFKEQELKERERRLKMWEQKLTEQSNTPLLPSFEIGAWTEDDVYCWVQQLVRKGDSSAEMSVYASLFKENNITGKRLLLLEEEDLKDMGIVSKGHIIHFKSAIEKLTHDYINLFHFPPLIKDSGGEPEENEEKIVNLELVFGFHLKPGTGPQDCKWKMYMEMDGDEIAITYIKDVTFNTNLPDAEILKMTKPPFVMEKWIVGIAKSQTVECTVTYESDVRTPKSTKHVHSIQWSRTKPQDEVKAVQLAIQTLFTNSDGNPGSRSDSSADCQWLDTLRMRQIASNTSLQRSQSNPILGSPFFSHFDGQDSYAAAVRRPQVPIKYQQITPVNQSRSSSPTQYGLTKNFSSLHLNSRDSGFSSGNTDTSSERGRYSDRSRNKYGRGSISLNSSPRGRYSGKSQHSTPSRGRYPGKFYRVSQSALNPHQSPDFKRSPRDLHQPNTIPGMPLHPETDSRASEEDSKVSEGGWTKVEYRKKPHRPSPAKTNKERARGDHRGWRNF
Chain of Cyclin-dependent kinase 5 (Homo sapiens) (Q00535 whole entry, looked up): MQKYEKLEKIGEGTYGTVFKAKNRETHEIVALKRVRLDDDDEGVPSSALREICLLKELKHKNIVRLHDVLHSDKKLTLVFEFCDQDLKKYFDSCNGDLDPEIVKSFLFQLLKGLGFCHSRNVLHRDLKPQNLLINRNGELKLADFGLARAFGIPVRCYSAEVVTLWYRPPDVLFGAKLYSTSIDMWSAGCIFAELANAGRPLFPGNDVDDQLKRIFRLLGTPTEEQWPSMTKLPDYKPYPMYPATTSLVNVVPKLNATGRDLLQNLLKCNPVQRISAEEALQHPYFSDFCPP
Chain of Ribosomal protein S6 kinase alpha-6 (Homo sapiens) (Q9UK32 whole entry): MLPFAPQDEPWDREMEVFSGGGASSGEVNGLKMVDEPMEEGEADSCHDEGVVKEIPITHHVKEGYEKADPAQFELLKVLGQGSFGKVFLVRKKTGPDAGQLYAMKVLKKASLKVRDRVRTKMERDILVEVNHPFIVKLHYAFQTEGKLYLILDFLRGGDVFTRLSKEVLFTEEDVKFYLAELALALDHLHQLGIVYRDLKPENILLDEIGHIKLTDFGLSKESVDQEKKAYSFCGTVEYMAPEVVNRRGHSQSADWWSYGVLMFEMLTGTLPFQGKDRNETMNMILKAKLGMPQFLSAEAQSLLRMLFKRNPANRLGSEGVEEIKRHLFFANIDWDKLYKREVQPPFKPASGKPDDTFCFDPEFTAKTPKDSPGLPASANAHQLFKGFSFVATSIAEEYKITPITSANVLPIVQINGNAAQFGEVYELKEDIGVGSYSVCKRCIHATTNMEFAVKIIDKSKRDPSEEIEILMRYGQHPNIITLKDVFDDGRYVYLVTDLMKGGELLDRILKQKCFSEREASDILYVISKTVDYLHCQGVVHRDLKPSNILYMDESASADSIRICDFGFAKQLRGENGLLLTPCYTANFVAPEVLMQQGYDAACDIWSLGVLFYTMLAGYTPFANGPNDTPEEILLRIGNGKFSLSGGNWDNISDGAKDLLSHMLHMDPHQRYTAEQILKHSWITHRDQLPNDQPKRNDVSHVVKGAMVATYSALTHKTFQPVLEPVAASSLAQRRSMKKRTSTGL
Chain of Sigma intracellular receptor 2 (Q5BJF2 whole entry): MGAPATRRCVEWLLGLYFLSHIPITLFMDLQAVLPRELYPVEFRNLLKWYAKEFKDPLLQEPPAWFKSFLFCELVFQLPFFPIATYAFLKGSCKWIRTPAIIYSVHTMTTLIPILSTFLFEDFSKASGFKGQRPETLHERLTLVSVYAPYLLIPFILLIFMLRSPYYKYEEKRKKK

A word on the inhibition: it is the share of the control response that was lost under treatment. Consider `CCc1ccccc1C(=O)Nc1n[nH]c2c(C)c(F)c(C3C(C#N)=C(C)N(C)C(C)=C3C#N)cc12` [BAY-3827], for which the residual activity in experiment [1] is 82%; in experiment [2], 100%; in experiment [3], 88%; in experiment [4], 100%; in experiment [5], 89%; in experiment [6], 70%. Besides, the residual activity is 82% in experiment [7]; 79% in experiment [8]; 29% in experiment [9]; 97% in experiment [10]; 71% in [11]; 73% in [12]. For the same compound, the residual activity in [13] is 100%; in [14] it was 100%; in experiment [15] it was 93%; in [16], 86%; in experiment [17], 90%; in experiment [18], 100%. In addition, the residual activity was 100% in [19], 78% in experiment [20] and 90% in [21]. Further, the inhibition in experiment [22] was 16.1%; in experiment [23], 78.3%.

Regarding `CC1=C(C#N)C(c2ccc3c(c2)c(NC(=O)c2ccccc2C)nn3C)C(C#N)=C(C)N1` [BAY-974], the residual activity was 100% in experiment [1]; 93% in experiment [2]; 99% in experiment [3]; 100% in experiment [4]; 87% in [5]; 74% in experiment [6]. Besides, the residual activity in [7] was 89%; in experiment [8], 73%; in [9], 78%; in [10] it was 93%; in experiment [11], 86%; in experiment [12], 81%. The residual activity in experiment [13] is 100%; in experiment [14], 100%; in experiment [15], 100%; in experiment [16], 77%; in [17], 71%; in [18], 80%. For the same compound, the residual activity in [19] is 83%; in experiment [20] it was 98%; in experiment [21] it was 100%. Moreover, the inhibition in [22] was 21.6%; in [23], 51.2%.

These data come from ChEMBL document CHEMBL4507319 (2021).
